In the Deep4Chem optical property database one finds emission maximum data, which are given here for 40 compounds.

The data set in a line: solvent given as SMILES.

On to `c1ccc(-c2nc(-c3ccccc3)nc(-c3ccc(-n4c5ccccc5c5c6c(ccc54)-c4ccccc4C6(c4ccccc4)c4ccccc4)cc3)n2)cc1`, for which the emission maximum reads like this: (in C1CCOC1) 504.15 nm; (in CCCCCC) 407.03 nm; (in Cc1ccccc1) 446 nm; (in ClCCl) 530.05 nm; (in O=P(c1ccccc1)(c1ccccc1)c1ccccc1Oc1ccccc1P(=O)(c1ccccc1)c1ccccc1) 475 nm.
`COc1ccc(NC(=O)C(C(=O)Nc2ccc(OC)cc2)C(c2cc(F)ccc2O)c2c[nH]c3ccc(OC)cc23)cc1` (stereo not drawn) gave an emission maximum (in CS(C)=O) of 341 nm.
`COc1ccc(/C=C/C=C/C=C/c2ccc([N+](=O)[O-])cc2)cc1`: the emission maximum by setting is: (in C1CCOC1) 611 nm; (in C1COCCO1) 565 nm; (in CC1CCCCC1) 485 nm; (in CC#N) 740 nm; (in CO) 690 nm; (in CS(C)=O) 744 nm. Besides, the emission maximum is, setting by setting: (in Cc1ccccc1) 541 nm; (in ClC(Cl)Cl) 681 nm; (in ClCCl) 694 nm.
For `CCCCN(CCCC)c1ccc(C#Cc2cc(C#Cc3c(F)c(F)c(F)c(F)c3F)c(C#Cc3c(F)c(F)c(F)c(F)c3F)cc2C#Cc2ccc(N(CCCC)CCCC)cc2)cc1`, the emission maximum was found to be 556 nm (in ClCCl) and 505 nm (in c1ccccc1).
Take `O=c1c2ccccc2n(-c2ccc(-c3ccc(-n4c5ccccc5c(=O)c5ccccc54)cc3)cc2)c2ccccc12`: where the note is “in ClCCl”, the emission maximum came to 405 nm.
Consider `CC(C)(C)c1ccc2c(c1)c1cc(C(C)(C)C)ccc1n2-c1ccc(-c2ccc3c(c2)C2(c4cc(-c5ccc(-n6c7ccc(C(C)(C)C)cc7c7cc(C(C)(C)C)ccc76)cc5)ccc4-3)c3ccccc3S(=O)(=O)c3ccccc32)cc1`, for which the emission maximum (in ClCCl) was determined as 449 nm and the emission maximum (in c1cc(-n2c3ccccc3c3ccccc32)cc(-n2c3ccccc3c3ccccc32)c1) came to 434 nm.
Compound `c1csc(-c2ccc(-c3cccs3)c3nsnc23)c1` registered an emission maximum (in ClC(Cl)Cl) of 565 nm.
In the case of `CCOC(=O)COc1ccc(/C=C/C2=C3c4ccccc4C(c4[nH]c(C)cc4C)=[N+]3[B-](F)(F)n3c(C)cc(C)c32)cc1`, the emission maximum runs as follows: (in C1CCOC1) 684 nm; (in CC#N) 681 nm; (in CCCCCC) 679 nm; (in CO) 680 nm; (in Cc1ccccc1) 690 nm; (in ClCCl) 687 nm.
In turn, `CCCCCCCCCCCCCCn1c(-c2cc(-c3nc4ccc(C)cc4n3CCCCCCCCCCCCCC)cc(-c3nc4ccc(C)cc4n3CCCCCCCCCCCCCC)c2)nc2ccc(C)cc21` displayed an emission maximum (in C1CCOC1) of 368.6 nm.
As for `CCCCCCn1c2ccccc2c2cc(-c3ccc(-c4cc(-c5ccccn5)nc(-c5ccccn5)c4)cc3)ccc21`, the emission maximum (in ClCCl) amounted to 447 nm.
As for `CC1(C)c2ccccc2N(c2ccc3c(ccc4nc5ccc6cc(N7c8ccccc8C(C)(C)c8ccccc87)ccc6c5nc43)c2)c2ccccc21`, the emission maximum is, setting by setting: (in C1CCCCC1) 484 nm; (in C1CCOC1) 661 nm; (in Cc1ccccc1) 552 nm; (in ClCCl) 699 nm.
`CCCCCCCCCCCCN1C(=O)c2ccc3c4ccc5c6c(ccc(c7ccc(c2c37)C1=O)c64)C(=O)N(CCCCCCCCCCCC)C5=O` displayed an emission maximum (in CN(C)C=O) of 536 nm.
`COc1ccc(-c2nc3c([nH]2)C2=CC(=O)S[C@]2(C)[C@@]2(C)SC(=O)C=C32)cc1` had an emission maximum (in CC#N) of 533 nm.
As for `c1ccc(-c2ccc(-c3ccc4c(c3)CCO4)cc2)cc1`, the emission maximum (in C1CCCCC1) is reported as 377 nm.
As to `Cc1cccc2nc3c(=O)[nH]c(=O)[nH]c3nc12`, the emission maximum is, setting by setting: (in C1COCCO1) 437 nm; (in CC#N) 449 nm; (in CCO) 465 nm; (in CO) 469 nm; (in ClCCCl) 450 nm; (in O) 495 nm.
For `O=P1(c2ccccc2)c2ccc(N3c4ccccc4Sc4ccccc43)cc2-c2cc(N3c4ccccc4Sc4ccccc43)ccc21`, the emission maximum came out at 559 nm (in Cc1ccccc1) and 555 nm (in c1ccc2c(c1)c1ccccc1n2-c1ccc(-c2ccc(-n3c4ccccc4c4ccccc43)cc2)cc1).
Turning to `CC(C)[Si](C#Cc1ccc(C#C[Si](C(C)C)(C(C)C)C(C)C)c2nc3cc4c(cc3nc12)[C@H]1c2ccccc2[C@@H]4c2ccccc21)(C(C)C)C(C)C`, the emission maximum (in CCCCCC) was determined as 455 nm and the emission maximum (in ClCCl) was 473 nm.
For the setting “in CC#N”, `CN(C)C1=Nc2cccc3cccc1c23` yielded an emission maximum of 589 nm.
For the compound `COc1ccc(C2CC(c3ccc(O)cc3)=NN2c2ccc(S(N)(=O)=O)cc2)cc1` (stereo not drawn), the emission maximum was 417 nm (in C1CCOC1); 418 nm (in C1COCCO1); 418 nm (in CC#N); 423 nm (in CC(C)O); 429 nm (in CCO); 416 nm (in CCOC(C)=O). The emission maximum came out at 422 nm (in CN(C)C=O), 432 nm (in CO), 425 nm (in CS(C)=O) and 448 nm (in O).
For the setting “in C1CCOC1”, `CCN(CC)c1ccc(-c2nc3c4ccccc4n(C)c3nc2-c2ccc([B-](F)(c3c(C)cc(C)cc3C)c3c(C)cc(C)cc3C)cc2)cc1` displayed an emission maximum of 508.44 nm.
For the compound `Cc1ccc(-n2c3ccccc3c3cc(C=C(C#N)C#N)ccc32)cc1`, the emission maximum (in C1CCOC1) is 454 nm; the emission maximum (in CC#N) is recorded as 516 nm; the emission maximum (in CC(C)=O) was 502 nm; the emission maximum (in CCOC(C)=O) turned out to be 474 nm; the emission maximum (in CO) is 519 nm; the emission maximum (in CS(C)=O) was determined as 524 nm. For the same compound, the emission maximum reads like this: (in Cc1ccccc1) 454 nm; (in ClC(Cl)Cl) 478 nm.
Turning to `CCN(CC)c1ccc(/C=N/Nc2ccc(C#N)cc2)c(O)c1`, the emission maximum is 418 nm (in CC#N); 403 nm (in CCCCCC); 430 nm (in CO); 422 nm (in CS(C)=O); 410 nm (in ClC(Cl)Cl).
`CCCCOc1ccc(-c2cc3c(o2)c(-c2ccc(OCCCC)cc2)c2n3[B-](F)(F)[N+]3=Cc4c(-c5ccc(OCCCC)cc5)c5oc(-c6ccc(OCCCC)cc6)cc5n4[B-](F)(F)[N+]3=C2)cc1`: the emission maximum (in C1CCOC1) was 659 nm; the emission maximum (in CN(C)C=O) was 667 nm; the emission maximum (in CS(C)=O) is given as 672 nm; the emission maximum (in Cc1ccccc1) is 660 nm; the emission maximum (in ClC(Cl)Cl) is reported as 660 nm; the emission maximum (in ClCCl) is listed as 661 nm.
Regarding `CC/[NH+]=c1\cc2oc3cc(NCCN)c4ccccc4c3nc-2cc1C`, the emission maximum is, setting by setting: (in CCO) 647 nm; (in O) 647 nm.
`CC1(C)C2=C(c3ccccc31)S(=O)(=O)c1ccccc12` displayed an emission maximum (in ClCCl) of 444 nm.
Under “in CCO”, `CC1=CC(C)(C)N(C)c2cc3c(cc21)C(c1ccc(Br)cc1)=c1cc2c(cc1O3)=[N+](C)C(C)(C)C=C2C` yielded an emission maximum of 616 nm.
Turning to `CSC1=C(C)C2=C(c3ccc(C)cc3)c3c(C)c(Cl)c(C)n3[B-](F)(F)[N+]2=C1C`, the emission maximum (in C1CCOC1) is on record as 655 nm.
`N#Cc1nn(-c2ccc(Cl)cc2)nc1N1CCCC1`: the emission maximum (in CC#N) was 429 nm.
Compound `F[B-]1(F)N(c2ccccc2)c2cccc3ccc4ccc[n+]1c4c23` displayed an emission maximum (in ClCCl) of 584 nm.
As to `O=c1c2cc(F)c(O)cc2oc2cc(N3CCCCC3)c(F)cc12`, the emission maximum (in CCO) is recorded as 445 nm.
Turning to `Cc1cccc2cc3c(=O)n(C)c(=O)n(C)c3nc12`, the emission maximum reads like this: (in CC#N) 417 nm; (in CC(C)O) 421 nm; (in CCO) 423 nm; (in CO) 425 nm; (in ClC(Cl)Cl) 417 nm; (in ClCCl) 417 nm.
With `N#Cc1nc(N(Cc2ccc(Cl)cc2)Cc2ccc(Cl)cc2)c(C#N)nc1N(Cc1ccc(Cl)cc1)Cc1ccc(Cl)cc1`, the emission maximum (in ClC(Cl)Cl) worked out at 577 nm.
Where the note is “in Cc1ccccc1”, `CC1(C)OB(c2cc3ccc4cccc5ccc(c2)c3c45)OC1(C)C` came in with an emission maximum of 386 nm.
For `FC(F)(F)c1ccc(/C=C/c2nc3c(ccc4ccccc43)s2)cc1`, the emission maximum is 432 nm (in C1CCCCC1) and 445 nm (in CC#N).
`c1ccc(-c2nc3cc4c(cc3n2-c2ccccc2)nc(-c2ccccc2)n4-c2ccccc2)cc1` yielded an emission maximum (in CC#N) of 397 nm.
`Fc1cc(F)c2cc3cccc[n+]3cc2c1` gave an emission maximum (in O) of 420 nm.
On to `CN(C)c1ccc(/C=C/C(=O)c2ccc(Cl)cc2)cc1`, for which the emission maximum stood at 516 nm (in C1CCOC1); 540 nm (in CC#N); 521 nm (in CC(=O)O); 532 nm (in CC(C)=O); 542 nm (in CCO); 542 nm (in CN(C)C=O). The emission maximum is, setting by setting: (in CO) 544 nm; (in Cc1ccccc1) 486 nm; (in ClC(Cl)Cl) 522 nm; (in c1ccccc1) 488 nm.
For `CC(C)(C)c1cc2ccc3c(-c4ccc(N(c5ccccc5)c5ccccc5)cc4)ccc4c5nc6cc(C#N)c(C#N)cc6nc5c(c1)c2c34`, the emission maximum reads like this: (in C1CCOC1) 839.18 nm; (in CCCCCC) 575.31 nm; (in Cc1ccccc1) 613 nm; (in ClC(Cl)Cl) 784.69 nm; (in ClCCl) 839.18 nm.
Under “in Cc1ccccc1”, `c1ccc(-c2nc(-c3ccccc3)c(-c3ccccc3)o2)cc1` registered an emission maximum of 381 nm.
Turning to `CCNc1cc2oc3c/c(=[NH+]\CC)c(C)cc-3c(-c3ccccc3C(=O)OCC)c2cc1C`, the emission maximum (in CC#N) amounted to 552 nm; the emission maximum (in CCO) is 552 nm; the emission maximum (in CN(C)C=O) is on record as 532 nm; the emission maximum (in CO) worked out at 555 nm; the emission maximum (in O) was 554 nm.
